Results from paper PMC12040169 (PLOS Biology, 2025).

Assay: in vitro
Details: human, hela cells, % viability

SMILES	viability at 28.5 h, 10 µM [%]	viability at 28.5 h, 10 µM (bulk resorufin, single well) [%]
O=C(CCn1c(C(F)F)cc2cccnc21)NCc1ccncc1 [CBK285027]	103	–
CC1CC(C)CN(C(=O)c2ccccc2NC(=O)C2CC(=O)Nc3ccccc32)C1 (centres unmarked) [CBK297760]	81.8	–
Nc1nc2c(nc(SCCc3ccccc3)n2C2OC(CO)C(O)C2O)c(=O)[nH]1 (centres unmarked) [CBK268686]	101	–
CCOc1ccc(CNc2sc3c(c2C(=O)Nc2ccc(OC)cc2)CCC3)cc1 [CBK294473]	80.6	–
CCn1cncc1C(=O)NCC1(c2ccccc2F)CCOCC1 [CBK281555]	90.9	–
Cc1cc(C2CCCCCN2C(=O)c2c(Cl)cnn2C)on1 (centres unmarked) [CBK283045]	108	–
COc1ccc(Nc2ncnc3c2c(C)c(C)n3CCO)cc1 [CBK288161]	102	–
c1ccc(CNC2(Cc3cc(-c4ccccn4)on3)COC2)cc1 [CBK289643]	87.9	–
C[C@H](NC(=O)N1CCN(C(=O)CCc2c[nH]c3ccccc23)CC1)C(=O)O [CBK286774]	97.7	–
Nc1nnc(SCCN2C(=O)c3ccccc3S2(=O)=O)s1 [CBK267688]	88.6	–
O=C(O)c1[nH]c2ccccc2c1C(c1c(F)cccc1Cl)c1c(C(=O)O)[nH]c2ccccc12 [CBK267797]	87.4	–
CC1CCC(C(C)C)C(OC(=O)C(C)O)C1 (centres unmarked) [CBK067073]	81.6	–
Cc1cc([N+](=O)[O-])ccc1/N=C\c1ccc(C(=O)O)cc1 [CBK262058]	95.4	–
Cc1nc(C)c(C(=O)Nc2ccc3c(c2)CN(Cc2ccccc2)C3)o1 [CBK281835]	91.2	–
CC1(C)CC(=O)C(C(=S)Nc2ccccc2)=C(NCc2ccccc2)C1 [CBK264498]	91.6	–
CCOC(=O)c1c(CSc2ccc(Cl)cc2)n(C)c2cc(Br)c(O)c(CN(C)C)c12 [CBK217489C]	108	–
CCCc1ccc(-c2cc(C(=O)NCc3cccnc3)c3ccccc3n2)cc1 [CBK300494]	92.6	–
Cc1ccc(NC(=O)c2cnc3n(c2=O)CCS3)cc1 [CBK287376]	108	–
Cc1ccc(C(=O)NCc2cccc(COCc3ccco3)c2)cc1F [CBK297750]	83.5	–
CC(NC(=O)c1ccc(F)cc1Cl)c1ccccc1 (centres unmarked) [CBK270317]	89.3	–
O=C(Nc1ccc(Br)cc1)C1CCCN1S(=O)(=O)c1ccc(Cl)cc1 (centres unmarked) [CBK155481]	88.4	–
COCCN(CC1CC1)C(=O)NCc1cccc(Cl)c1 [CBK304368]	93.4	–
Cc1nc2sccn2c1CN1CCc2sccc2C1C (centres unmarked) [CBK282807]	92.4	–

SMILES	viability at 28.5 h, 10 µM [%]	viability at 28.5 h, 10 µM (bulk resorufin, single well) [%]
N#CCCN(C(=O)NCc1ccc2c(c1)OCO2)C1CCCCC1 [CBK156351]	98.7	–
CCCCc1c(C)nc2c(OC)cccc2c1SCCC(=O)O [CBK126917]	99.5	–
CCOC(=O)CCNC(=O)c1ccccc1-n1cccc1 [CBK149611]	95.3	–
CCc1c(C)nc2ccccc2c1SCC(=O)O [CBK153279]	83.9	–
CCN(CC)C(=O)c1sccc1NS(=O)(=O)Cc1ccccc1 [CBK050393]	106	–
O=C(Cn1c2ccccc2c2ccccc21)Sc1nc2ccccc2[nH]1 [CBK263788]	103	–
CC(C)(C)c1ccc(-c2cnc3ncccc3c2N)cc1 [CBK083684]	99.9	–
Cc1cnn(C2CCCN(C(=O)Cc3cccs3)C2)c1 (centres unmarked) [CBK304832]	102	–
Cc1csc(-c2cnc(N3CCOCC3)c3nccn23)c1 [CBK091287]	87.5	–
COc1ccc(-c2c(O)n[nH]c2CCC2CCCC2)cc1 [CBK075126]	88.1	–
N#Cc1ccc2nc([C@H]3CCN(C(=O)c4ccccc4)C3)[nH]c2c1 [CBK289379]	92.4	–
O=C(O)c1cc(-n2c(S)nnc2-c2ccncc2)ccc1Cl [CBK268989]	94.9	–
O=C1COc2ccc(S(=O)(=O)NCCc3ccccc3)cc2N1 [CBK270162]	114	–
COc1cc(CNc2nc(-c3cccc4ccccc34)cn3ccnc23)cc(OC)c1OC [CBK037397]	112	–
CCCCOC(=O)CCc1nc2ccccc2nc1O [CBK264523]	97.3	–
CC(=O)Nc1ccc(-c2ccc(C(=O)N3CCC(Sc4ccccc4)CC3)cn2)cc1 [CBK160188]	99.6	–
O=S(=O)(N1CCCCCC1)N1CCN(S(=O)(=O)N2CCOCC2)CC1 [CBK269152]	100	–
NCCNC(=O)c1cc2cc(F)ccc2[nH]1 [CBK107345]	95.8	–
COc1ccc(CN2CCc3cc(OC)c(OC)cc3C2c2ccccc2)cc1CO (centres unmarked) [CBK286358]	92.2	–
CN(Cc1cccc(C#N)c1)Cc1nc2c(cnn2C)c(=O)[nH]1 [CBK305973]	109	–
CCOc1ccc(N2C(=O)NC(=O)/C(=C/c3cn(CC(=O)Nc4ccccc4)c4ccccc34)C2=O)cc1 [CBK263544]	–	90.2
COc1cccc2sc(Nc3nc4ccc(NC(C)=O)cc4s3)nc12 [CBK287468]	94.9	–
O=C(Cc1ccc(F)cc1Cl)N1CCC(O)(c2ccccn2)CC1 [CBK283755]	98.1	–

SMILES	viability at 28.5 h, 10 µM [%]	viability at 28.5 h, 10 µM (bulk resorufin, single well) [%]
CSc1ccc(-c2nc(NC(=O)C(C)C)cc3cccnc23)cc1 [CBK081262]	100	–
Cc1ccccc1OCC(=O)Nc1ccc(C(=O)O)c(Cl)c1 [CBK287027]	83.6	–
COc1cccc(N2CCN(c3cc4n[nH]c(=O)n4cn3)CC2)c1 [CBK300511]	87.1	–
COCCNc1nc(-c2ccc(C(C)=O)s2)ccc1C(=O)N(C)CCN(C)C [CBK105914]	116	–
CCOC(=O)c1c(NC(C)=O)nc2n1CCS2 [CBK023488]	98.5	–
CN(C)CCNC(=O)C1CCCN(c2nc3c(-c4ccccc4)csc3c(=O)[nH]2)C1 (centres unmarked) [CBK215501]	88.3	–
O=C(CCCOc1ccc(Cl)cc1)n1ccn(CCc2cccs2)c1=O [CBK106614]	104	–
CC1CN(C(=O)CCn2c(C(F)F)cc3cccnc32)CC(C)O1 (centres unmarked) [CBK284984]	95.3	–
CNC(=O)c1sc2ccccc2c1C1CCN(Cc2ccc(OC)c(OC(C)C)c2)C1 (centres unmarked) [CBK285928]	95.5	–
COc1ccc(Cl)cc1NC(=O)C(=O)NCc1ccccn1 [CBK263837]	90.2	–
Cn1ccnc1CN1CCC2(C/C=C/Cc3ccccc3OCC(=O)NCCNC2=O)CC1 [CBK292180]	95.7	–
FC(F)(F)c1cc(-c2cn3ccnc3c(N3CCOCC3)n2)cc(C(F)(F)F)c1 [CBK066396]	93.4	–
Cc1cc2nnn(C[C@@H](C)NC(=O)c3ccco3)c2cc1C [CBK282366]	100	–
COc1ccc(CSCC(N)C(=O)O)cc1Br (centres unmarked) [CBK264026]	94	–
Cn1cc(C2CNCCN2C(=O)CCCc2csc3ccccc23)cn1 (centres unmarked) [CBK304274C]	89.9	–
CC(C)c1cc(C(=O)NCC2CCCN(C(C)C)C2)n(C)n1 (centres unmarked) [CBK282566]	95.8	–
Cc1ccc(-c2ccccc2CC2(C(=O)Nc3ccc(C(N)=O)cc3)CCOCC2)c(C)c1 [CBK286422]	95.9	–
COc1ccc(Cl)cc1NS(=O)(=O)N(C)C [CBK025794]	90.6	–
O=C(O)C(Cc1c[nH]cn1)N1C(=O)C2CC=C(Cl)CC2C1=O (centres unmarked) [CBK286871]	92.4	–
O=C(CCc1ccc(S(=O)(=O)NC2CCCCC2)cc1)Nc1ccc2c(c1)OCCO2 [CBK266845]	95.2	–
N#Cc1ccccc1NC(=O)CSc1nc2cc(Cl)ccc2[nH]1 [CBK270019]	99.4	–
COc1ccccc1NC(=O)N1C[C@@H]2C[C@H](C1)c1c(-c3ccccc3F)ccc(=O)n1C2 [CBK289192]	92.7	–
CCCSc1ncc(Cl)c(C(=O)Nc2ccc(C(=O)OC)cc2)n1 [CBK268824]	102	–

SMILES	viability at 28.5 h, 10 µM [%]	viability at 28.5 h, 10 µM (bulk resorufin, single well) [%]
O=C(O)C(CCO)Sc1nnc(Nc2ccc(Oc3ccccc3)cc2)s1 (centres unmarked) [CBK296631]	85.7	–
CSCCc1[nH]c(SCC(=O)Nc2cccc3ccccc23)nc1C [CBK266097]	91.3	–
Cc1ccccc1C(c1cnccn1)N(C)C(=O)C1CCN(S(=O)(=O)c2cn(C)cn2)CC1 (centres unmarked) [CBK060264]	93.1	–
CCOC(=O)c1c(N)n(-c2cccc(C(F)(F)F)c2)c2nc3ccccc3nc12 [CBK264977]	95.6	–
CCNC(=O)N[C@H]1C[C@@H](Cc2cc(CN(C)C)on2)C1(C)C [CBK289310]	105	–
CN(C(=O)C1CC1)C1CCN(c2ncnc3ccccc23)CC1 [CBK304946]	80	–
CCCNS(=O)(=O)c1ccc(OCC(=O)N2CCN(C)CC2)c(C)c1 [CBK270169]	102	–
O=C(O)C1CC(O)CN1S(=O)(=O)c1ccc(Cl)cc1 (centres unmarked) [CBK266106]	86.8	–
OCCc1ccc(Nc2cc(-c3cccnc3)ncn2)cc1 [CBK090768]	114	–
CC(C)[C@@H](CO)Nc1cncc(-c2ccc(O)cc2)n1 [CBK066038]	97.8	–
CC(=O)Nc1cc(C(=O)NCCc2ccccc2)ccc1S(=O)(=O)c1ccc(C)cc1 [CBK071771]	89.3	–
CN1CCCN(c2cc(C(F)(F)F)c3scc(C(=O)NCc4cccc(F)c4F)c3n2)CC1 [CBK036386T]	87.9	–
COc1cnc(-c2cnn(C)c2)c(NC(=O)Cc2ccccc2)n1 [CBK145327]	101	–
COc1cccc(OCCN2CCC3(C2)NCCc2c3[nH]c3cc(OC)ccc23)c1 (centres unmarked) [CBK061794]	94.3	–
O=C(C1=C(O)C(=O)N(CCCn2ccnc2)C1c1ccc(Br)cc1)c1ccc2c(c1)OCCO2 (centres unmarked) [CBK266081]	104	–
c1cncc(COc2cncc(OC3CCNC3)n2)c1 (centres unmarked) [CBK077419T]	94.3	–
COCCOc1nnc(C)c2ccccc12 [CBK019388]	93.6	–
CC(=O)NC(NC(=S)Nc1sc2c(c1C#N)CCCC2)C(Cl)(Cl)Cl (centres unmarked) [CBK261053]	99.2	–
O=C1CO[C@H]2CN(S(=O)(=O)c3ccccc3)C[C@H]2N1c1ccccc1 [CBK289236]	93.7	–
O=C(O)c1cc(NS(=O)(=O)c2ccc3c(c2)OCCCO3)ccc1F [CBK296731]	104	–
